Where a name gives a salt, the structure may show the parent alone. Each block holds one compound with its values, some of them ahead of it.
Tests used:
biosimilar ERBITUX® = assay: Viscosity of aqueous solutions of biosimilar ERBITUX® with viscosity-lowering agents; conditions: 25° C.; for Fold Reduction: vs phosphate buffer
Description: All viscosities of well-mixed aqueous mAb solutions were measured using either a mVROC microfluidic viscometer (RheoSense) or a DV2T cone and plate viscometer (Brookfield; “C & P”) after a 5 minute equilibration at 25° C. (unless otherwise indicated). The mVROC viscometer was equipped with an “A” or “B” chip, each manufactured with a 50 micron channel. Typically, 0.10 mL of protein solution was back-loaded into a gastight microlab instrument syringe (Hamilton; 100 μL), affixed to the chip, and measured at multiple flow rates, approximately 20%, 40%, and 60% of the maximum pressure for each chip. […] An average absolute viscosity and standard deviation was then calculated from at least these three measurements. The C & P viscometer was equipped with a CPE40 or CPE52 spindle (cone angle of 0.8° and 3.0°, respectively) and 0.50 mL samples were measured at multiple shear rates between 2 and 400 s^−1. […] An extrapolated zero-shear viscosity was then determined from a plot of dynamic viscosity versus shear rate for the samples measured on a DV2T cone and plate viscometer. The extrapolated zero-shear viscosities reported are the average and standard deviation of at least three measurements.
First, Polysorbate 80 was removed using DETERGENT-OUT® TWEEN® Medi Columns (G-Biosciences). […] The collected protein solution was freeze-dried. The dried protein cakes, containing protein and buffer salts or agent, were reconstituted to a final volume of 0.15-1.3 mL. […] Reported protein concentrations represent the range of all protein samples included in each Table or Figure. Specifically, reported values are the median plus or minus half the range. Extrapolated zero-shear using an experimentally determined extinction coefficient of 1.4 L/g·cm and viscosities reported were measured on a DV2T cone and plate viscometer.
The final concentration of CSAL upon reconstitution in an aqueous CSAL solution ranged from 0.25 M to 0.50 M.
Specifically, 20 mM solutions of the viscosity-lowering agents of interest were used for buffer exchange, and the lyophilized cakes were reconstituted to 0.25 M of each viscosity-lowering agent. […] The sample was first aliquoted. […] The dried protein cakes, containing protein and viscosity-lowering agent (and a negligible amount of buffer salts) were reconstituted to a final volume of approximately 0.10 mL and viscosity-lowering agent concentration as previously described.
First, Polysorbate was removed from the commercially obtained mAb solutions.
Specifically, 20 mM solutions of the salts of interest were used for buffer exchange, and the lyophilized cakes were reconstituted to contain 0.25 M of each agent. Viscosities were measured using either a RheoSense mVROC microfluidic viscometer equipped with an “A” or “B” chip or a DV2T cone and plate viscometer.
(§2) Subsequently, the aqueous drug product was purified, buffer exchanged, concentrated, dried, reconstituted, and analyzed as described in the same manner. Viscosities reported were measured on a RheoSense mVROC microfluidic viscometer.

TYSABRI® = assay: Viscosity of aqueous solutions of TYSABRI® with viscosity-lowering agents; type: physicochemical; conditions: 25° C.
Description: All viscosities of well-mixed aqueous mAb solutions were measured using either a mVROC microfluidic viscometer (RheoSense) or a DV2T cone and plate viscometer (Brookfield; “C & P”) after a 5 minute equilibration at 25° C. […] The mVROC viscometer was equipped with an “A” or “B” chip, each manufactured with a 50 micron channel. Typically, 0.10 mL of protein solution was back-loaded into a gastight microlab instrument syringe (Hamilton; 100 μL), affixed to the chip, and measured at multiple flow rates, approximately 20%, 40%, and 60% of the maximum pressure for each chip. […] An average absolute viscosity and standard deviation was then calculated from at least these three measurements. The C & P viscometer was equipped with a CPE40 or CPE52 spindle (cone angle of 0.8° and 3.0°, respectively) and 0.50 mL samples were measured at multiple shear rates between 2 and 400 s^−1. Specifically, samples were measured for 30 seconds each at 22.58, 24.38, 26.25, 28.13, 30, 31.88, 45, 67.5, 90, 112.5, 135, 157.5, 180, 202.5, 247, 270, 292.5, 315, 337.5, 360, 382, 400 s^−1, starting at a shear rate that gave at least 10% torque, and continuing until instrument torque reached 100%. An extrapolated zero-shear viscosity was then determined from a plot of dynamic viscosity versus shear rate for the samples measured on a DV2T cone and plate viscometer. The extrapolated zero-shear viscosities reported are the average and standard deviation of at least three measurements.
(§3) Viscosities were measured using a RheoSense mVROC microfluidic viscometer equipped with an “A” or “B” chip.
as §2

VECTIBIX® = assay: Viscosity of aqueous solutions of VECTIBIX® with viscosity-lowering agents; type: physicochemical; conditions: 0.25M agent, 25° C., pH 7.0
Description: (§1) (unless otherwise indicated).

biosimilar AVASTIN® = assay: Viscosity of aqueous solutions of biosimilar AVASTIN® with viscosity-lowering agents; type: physicochemical
Description: as §1
The protein was formulated to contain either 0.25 M phosphate buffer or 0.25 M CSAL.
Subsequently, the appropriate amount of viscosity-lowering agent was added to result in a final viscosity-lowering agent concentration of 0.15-0.35 M upon reconstitution.
The viscosity-lowering agent(s) were added in an amount sufficient to give concentration upon reconstitution as specified below. In cases of combinations of agents, the concentration of each component is 0.15 M. The protein solutions were then freeze-dried.

HERCEPTIN® = assay: Viscosity of aqueous solutions of HERCEPTIN® with viscosity-lowering agents; type: physicochemical; conditions: 25° C.
REMICADE® [1] = assay: Viscosity of aqueous solutions of […]® with viscosity-lowering agents; type: physicochemical; conditions: for Viscosity: 25° C.
Description: as §1
An extrapolated zero-shear viscosity was determined from a plot of absolute viscosity versus shear rate.
Following reconstitution, the viscosity of each solution was measured using the microfluidic viscometer as described in previous examples. The solutions were then back-loaded into 1 mL BD insulin syringes with 27, 29, or 31 gauge fixed needles. The force required to extrude the concentrated […]® solutions was then measured using an Instron at a rate of displacement equivalent to a fluid flow rate of 3 mL/min. The expelled solution was collected from the syringe and analyzed by size-exclusion chromatography.

biosimilar RITUXAN® = assay: Viscosity of aqueous solutions of biosimilar RITUXAN® with viscosity-lowering agents; conditions: 25° C.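 Note: absolute viscosity of aqueous antibody solutions determined by microfluidic viscometry (mVROC chip, 50 micron channel) at several flow rates after 5 min equilibration, mean of at least three readings.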
Description: All viscosities of well-mixed aqueous mAb solutions were measured using either a mVROC microfluidic viscometer (RheoSense) or a DV2T cone and plate viscometer (Brookfield; “C & P”) after a 5 minute equilibration at 25° C. […] The mVROC viscometer was equipped with an “A” or “B” chip, each manufactured with a 50 micron channel. Typically, 0.10 mL of protein solution was back-loaded into a gastight microlab instrument syringe (Hamilton; 100 μL), affixed to the chip, and measured at multiple flow rates, approximately 20%, 40%, and 60% of the maximum pressure for each chip. […] An average absolute viscosity and standard deviation was then calculated from at least these three measurements. The C & P viscometer was equipped with a CPE40 or CPE52 spindle (cone angle of 0.8° and 3.0°, respectively) and 0.50 mL samples were measured at multiple shear rates between 2 and 400 s^−1. […] An extrapolated zero-shear viscosity was then determined from a plot of dynamic viscosity versus shear rate for the samples measured on a DV2T cone and plate viscometer. The extrapolated zero-shear viscosities reported are the average and standard deviation of at least three measurements.
as §3

REMICADE® [2] = assay: Monomer content of […]® solutions by size exclusion chromatography; type: physicochemical; conditions: lyophilized powder (cake containing CSAA) stored at 4° C.; reconstituted after 75 days
antigen = assay: Antigen binding, […]®-specific ELISA assay; conditions: 227 mg/mL, pH 7, 0.25M CSAA, storage at 4° C.
Description: Biophysical properties of solutions of […]® formulated with 0.25 M CSAA were assessed over 90 days. Samples of […]® formulated with 0.25 M CSAA were prepared as described in Example 1 above. […] (Table 20). Additionally, antigen binding of this processed […]® protein was measured with a […]®-specific ELISA assay and no decrease in binding was seen between days 0 and […] (Table 20).

[3] = 222 ± 5 mg/mL mAb, pH 7.0, 0.25M agent
[4] = 200 ± 5 mg/mL mAb, pH 7.0, 25° C., [Salt] 0.25 M of anion, C & P viscometer
[5] = 166 ± 4 mg/mL REMICADE, 0.25M agent, pH 7.0
[6] = 222 ± 6 mg/mL REMICADE, 0.25M agent, pH 7.0
[7] = 202 ± 2 mg/mL RITUXAN, 0.25M agent, pH 7.0

Compound: Cl.N=C(N)NCCC[C@H](N)C(=O)O [Arginine•HCl, arginine HCl, reference compound]
- Viscosity (biosimilar ERBITUX®; [3]): 45.3 ± 0.5 cP
- Fold Reduction (biosimilar ERBITUX®; [3]): 24.9 fold
- Viscosity (TYSABRI®; 230 ± 2 mg/mL TYSABRI, 0.25M agent, pH 7.0): 37.0 ± 0.1 cP
- Viscosity (TYSABRI®; 237 ± 4 mg/mL TYSABRI, 0.25M agent, pH 7.0): 52.3 ± 4.5 cP
- Viscosity (TYSABRI®; 276 ± 8 mg/mL TYSABRI, 0.25M agent, pH 7.0): 97.2 ± 5.7 cP
- Viscosity (VECTIBIX®; 233 ± 4 mg/mL VECTIBIX): 24.7 ± 1.3 cP
- Viscosity (VECTIBIX®; 252 ± 3 mg/mL VECTIBIX): 36.2 ± 1.0 cP
- Viscosity (biosimilar AVASTIN®; [4]): 83.2 ± 2.8 cP
- Viscosity (biosimilar AVASTIN®; 200 ± 5 mg/mL mAb, pH 7.0, 25° C., [Salt] 0.3 M of anion, C & P viscometer): 71.8 ± 2.2 cP
- Viscosity (HERCEPTIN®; 216 ± 0 mg/mL HERCEPTIN, 0.25M salt, pH 7.0): 44.8 ± 1.1 cP
- Viscosity (HERCEPTIN®; 254 ± 3 mg/mL HERCEPTIN, 0.25M salt, pH 7.0): 116 ± 24 cP
- Viscosity (HERCEPTIN®; 270 ± 6 mg/mL HERCEPTIN, 0.25M salt, pH 7.0): 179 ± 17 cP
- Viscosity (REMICADE® [1]; [5]): 110 ± 1 cP
- Viscosity (REMICADE® [1]; [6]): 486 ± 34 cP
- Viscosity (biosimilar RITUXAN®; 220 mg/mL RITUXAN (footnote *), 0.45M agent, pH 7.0): 86.8 ± 1.8
- Viscosity (biosimilar RITUXAN®; 202 ± 2 mg/mL RITUXAN, 0.45M agent, pH 7.0): 46.9 ± 0.8

- Viscosity (TYSABRI®; 233 mg/mL TYSABRI, […] agent): 75.8 ± 0.4 cP
- Viscosity (biosimilar AVASTIN®; 189 mg/mL mAb, agent […], 25° C.): 45.1 ± 0.9 cP
- Viscosity (HERCEPTIN®; 230 mg/mL HERCEPTIN, […] agent): 69.9 ± 2.3 cP
Compound: O=C([O-])CCCC[C@@H]1SC[C@@H]2NC(=O)N[C@@H]21.[Na+] [Biotin-Na]

Compound: CC1(C)C2CCC1(CS(=O)(=O)O)C(=O)C2 (centres unmarked) [CSA sodium salt, Camphorsulfonic acid]
- Viscosity (biosimilar ERBITUX®; [3]): 393 ± 14 cP
- Fold Reduction (biosimilar ERBITUX®; [3]): 2.9 fold
- Viscosity (biosimilar AVASTIN®; [4]): 55.7 ± 0.2 cP
- Viscosity (biosimilar RITUXAN®; [7]): 76.1 ± 1.3

- Viscosity (biosimilar ERBITUX®; 190 mg/mL mAb, […] agent): 120 ± 2 cP
- Viscosity (biosimilar AVASTIN®; 198 mg/mL mAb, agent […], 25° C.): 301 ± 5 cP
- Viscosity (biosimilar RITUXAN®; 222 mg/mL mAb, […] agent): 198 ± 17 cP
Compound: CO/N=C(\C(=O)N[C@@H]1C(=O)N2C(C(=O)O)=C(CSc3nc(=O)c(=O)[nH]n3C)CS[C@H]12)c1csc(N)n1 [Ceftriaxone sodium salt, reference compound]

- Viscosity (biosimilar ERBITUX®; 179 mg/mL mAb, 0.10M agent): 37.4 ± 0.9 cP
- Viscosity (biosimilar ERBITUX®; 199 mg/mL mAb, 0.10M agent): 54.8 ± 0.2 cP
- Viscosity (biosimilar AVASTIN®; 200 mg/mL mAb, agent 0.10M, 25° C.): 27.9 ± 0.6 cP
- Viscosity (biosimilar AVASTIN®; 219 mg/mL mAb, agent 0.10M, 25° C.): 58.6 ± 1.6 cP
- Viscosity (biosimilar AVASTIN®; 228 mg/mL mAb, agent 0.10M, 25° C.): 71.8 ± 0.9 cP
- Viscosity (biosimilar RITUXAN®; 210 mg/mL mAb, 0.10M agent): 67.1 ± 1.1 cP
Compound: CCN(CC)CCCC(C)Nc1ccnc2cc(Cl)ccc12 (centres unmarked) [Chloroquine Phosphate, reference compound]

- Viscosity (biosimilar ERBITUX®; 183 mg/mL mAb, […] agent): 19.7 ± 0.2 cP
- Viscosity (biosimilar AVASTIN®; 203 mg/mL mAb, agent […], 25° C.): 53.8 ± 2.4 cP
- Viscosity (biosimilar RITUXAN®; 215 mg/mL mAb, […] agent): 49.5 ± 1.2 cP
Compound: CN/C(=N/CCSCc1nc[nH]c1C)NC#N [Cimetidine HCl, reference compound]

- Viscosity (biosimilar ERBITUX®; 180 mg/mL mAb, […] agent): 23.0 ± 0.2 cP
- Viscosity (biosimilar AVASTIN®; 168 mg/mL mAb, agent […], 25° C.): 37.9 ± 0.6 cP
- Viscosity (biosimilar AVASTIN®; 237 mg/mL mAb, agent […], 25° C.): 308 ± 34 cP
- Viscosity (biosimilar RITUXAN®; 204 mg/mL mAb, […] agent): 51.2 ± 0.8 cP
Compound: CN1C2CCCC1CC(NC(=O)c1nn(C)c3ccccc13)C2 (centres unmarked) [Granisetron HCl, reference compound]

- Viscosity (biosimilar ERBITUX®; 176 mg/mL mAb, […] agent): 103 ± 3 cP
- Viscosity (biosimilar ERBITUX®; 199 mg/mL mAb, […] agent): 178 ± 2 cP
- Viscosity (biosimilar RITUXAN®; 205 mg/mL mAb, […] agent): 130 ± 2 cP
Compound: CC[C@@H](C(N)=O)N1CCCC1=O [Levetiracetam, reference compound]

- Viscosity (biosimilar ERBITUX®; 178 mg/mL mAb, […] agent): 82.1 ± 3.6 cP
- Viscosity (biosimilar RITUXAN®; 207 mg/mL mAb, […] agent): 114 ± 7 cP
Compound: CC1(C)S[C@@H]2[C@H](NC(=O)Cc3ccccc3)C(=O)N2[C@H]1C(=O)[O-].[Na+] [Penicillin G sodium salt, reference compound]

- Viscosity (biosimilar ERBITUX®; 230 mg/mL mAb, […] agent): 35.9 ± 0.3 cP
- Viscosity (TYSABRI®; 228 mg/mL TYSABRI, […] agent): 45.1 ± 1.5 cP
- Viscosity (biosimilar AVASTIN®; 188 mg/mL mAb, agent […], 25° C.): 40.8 ± 0.9 cP
- Viscosity (biosimilar AVASTIN®; 222 mg/mL mAb, agent […], 25° C.): 65.8 ± 0.8 cP
- Viscosity (HERCEPTIN®; 222 mg/mL HERCEPTIN, […] agent): 41.8 ± 0.6 cP
- Viscosity (REMICADE® [1]; 174 mg/mL REMICADE, […] agent): 23.4 ± 0.2 cP
- Viscosity (biosimilar RITUXAN®; 195 mg/mL mAb, […] agent): 33.4 ± 1.2 cP
- Viscosity (biosimilar RITUXAN®; 222 mg/mL mAb, […] agent): 46.2 ± 1.1 cP
Compound: CCN(CC)CCOC(=O)c1ccc(N)cc1 [Procaine HCl, reference compound]

Compound: CN1[C@@H]2C[C@@H](OC(=O)[C@H](CO)c3ccccc3)C[C@H]1[C@@H]1O[C@@H]12 [Scopolamine HBr, reference compound]
- Viscosity (biosimilar ERBITUX®; 173 mg/mL mAb, […] agent): 23.4 ± 0.6 cP
- Viscosity (biosimilar AVASTIN®; 210 mg/mL mAb, agent […], 25° C.): 35.3 ± 1.1 cP
- Viscosity (biosimilar AVASTIN®; 223 mg/mL mAb, agent […], 25° C.): 64.0 ± 0.8 cP
- Viscosity (biosimilar AVASTIN®; 238 mg/mL mAb, agent […], 25° C.): 87.8 ± 1.5 cP
- Viscosity (biosimilar RITUXAN®; 197 mg/mL mAb, […] agent): 42.3 ± 1.0 cP

- Viscosity (HERCEPTIN®; 232 mg/mL HERCEPTIN, […] agent): 60.1 ± 0.6 cP
- Viscosity (biosimilar RITUXAN®; 188 mg/mL mAb, […] agent): 40.7 ± 0.5 cP
- Viscosity (biosimilar RITUXAN®; 242 mg/mL mAb, […] agent): 63.0 ± 3.5 cP
Compound: CSA-Na-Ornidazole

Compound: Colistin sulfate salt [reference compound]
- Viscosity (biosimilar ERBITUX®; 203 mg/mL mAb, […] agent): 138 ± 4 cP
- Viscosity (biosimilar AVASTIN®; 240 mg/mL mAb, agent […], 25° C.): 261 ± 58 cP
- Viscosity (biosimilar RITUXAN®; 230 mg/mL mAb, […] agent): 228 ± 19 cP

- Viscosity (biosimilar AVASTIN®; 219 mg/mL mAb, […] agent, pH 7.0, 25° C., microfluidic): >150 cP
- Viscosity (biosimilar RITUXAN®; 191 mg/mL mAb, […] agent): 80.3 ± 16.0 cP
Compound: Ethane disulfonate-diTris-2Na

- Viscosity (biosimilar AVASTIN®; 214 mg/mL mAb, agent […], 25° C.): 90.5 ± 1.8 cP
- Viscosity (biosimilar RITUXAN®; 191 mg/mL mAb, […] agent): 50.0 ± 3.8 cP
Compound: HEPES-Tris

- % binding (ELISA) (antigen; day 0): 105 ± 14%
- % binding (ELISA) (antigen; day 30): 98 ± 12%
- % binding (ELISA) (antigen; day 100): 101 ± 5%
Compound: REMICADE ®: infliximab, mAb against TNF-α; here concentrated solution formulated with 0.25 M CSAA
- % Monomer (SEC) (REMICADE® [2]): 98.9 ± 0.1%

Compound: sulfosalicylic acid di-arginine [Sulfosalicylic acid diarginine]
- Viscosity (biosimilar AVASTIN®; 228 ± 5 mg/mL mAb, agent […], 25° C., pH 7.0): 81.6 ± 1.7 cP
- Viscosity reduction (REMICADE® [1]; 0.25M agent vs PB, Table 17): about 29 fold
- Viscosity (REMICADE® [1]; [5]): 27.1 ± 0.3 cP
- Viscosity (REMICADE® [1]; [6]): 55.9 ± 1.8 cP
- Viscosity (biosimilar RITUXAN®; 220 mg/mL RITUXAN (footnote *), 0.25M agent, pH 7.0): 68.3 ± 0.8
- Viscosity (biosimilar RITUXAN®; [7]): 44.1 ± 0.1

From US9925263B2, “Liquid pharmaceutical formulations for injection comprising procaine and uses thereof” (EAGLE BIOLOGICS, INC., priority 2013, dated 2018)
